Results on 17 molecules are retold here after patent US12398107B2, “Fungicidal nitroanilino substituted pyrazoles” (FMC Corporation, priority 2018, dated 2025).

Format in all cases: in vivo
Experiment [1] deals with Septoria tritici. As to the kind of experiment: Test A: wheat leaf blotch, preventive spray on wheat seedlings. Particulars: 50 ppm, 100 = 100% disease control, 0 = no control relative to controls. Summed up:
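Preventive test: seedlings sprayed to run-off one day before Septoria tritici spore inoculation, with ppm doses in acetone/water containing 250 ppm PEG400. After 48 h at 24 °C in saturated air and 17 days at 20 °C, plants were scored 0–100 for disease control versus untreated controls.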

For experiment [2], the system named is Puccinia recondita f. sp. tritici. Description: Test B: wheat leaf rust, preventive spray on wheat seedlings. Particulars: 50 ppm, 100 = 100% disease control, 0 = no control relative to controls. Summed up:
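Wheat seedlings got a run-off spray (ppm, acetone/water 50/50, 250 ppm PEG400) and one day later a spore inoculum. After 24 h at 20° C. in saturated air and 7 days at 20° C., disease was scored as % control relative to controls (100 = full control).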

For experiment [3], the system named is Blumeria graminis f. sp. tritici. Description: Test C: wheat powdery mildew, preventive spray on wheat seedlings. Particulars: 50 ppm, rated after 8 days, 100 = 100% disease control, 0 = no control. Summed up:
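Wheat seedlings got a run-off spray of test suspension (ppm in acetone/water 50/50, 250 ppm PEG400, acetone 3% of volume), then spore-dust inoculation with wheat powdery mildew one day later. After 8 days' growth-chamber incubation at 20° C, disease control scored visually on a 0–100 scale versus untreated controls.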

Experiment [4] deals with Phakopsora pachyrhizi. Description: Test D: Asian soybean rust, preventive spray on soybean seedlings. Particulars: 50 ppm, 100 = 100% disease control, 0 = no control. Summed up: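 Soybean seedlings sprayed to run-off with compound suspension (ppm, in 50/50 acetone/water with 250 ppm PEG400), inoculated next day with P. pachyrhizi spores, held 24 h saturated at 22°C then 8 days at 22°C. Visual rating 0-100% disease control relative to controls.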

Experiment [5] deals with Botrytis cinerea. As to the kind of experiment: Test E: tomato Botrytis, preventive spray on tomato seedlings. Particulars: 50 ppm, 100 = 100% disease control, 0 = no control. Summed up:
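Preventive test: spore inoculation one day after run-off spraying of compound suspension (3% acetone, acetone/water 50/50, 250 ppm PEG400). Incubation 20 °C saturated humidity for 48 h, followed by 3 days at 24 °C growth chamber; disease control scored visually, 100 = full control.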

Experiment [6] concerns Alternaria solani. As to the kind of experiment: Test F: tomato early blight, preventive spray on tomato seedlings. Particulars: 50 ppm, 100 = 100% disease control, 0 = no control. Summed up: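 Preventive test: one day after seedlings were sprayed to run-off with ppm-level suspensions (acetone/water 50/50, 250 ppm PEG400), A. solani spore inoculation followed. Incubation was 48 h at 27° C in saturated air plus 3 days at 20° C; disease control was scored visually versus controls (100 = full control).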

Turning to `COc1ccc(-c2c(C)nn(C)c2Nc2c(Cl)cc(C)cc2[N+](=O)[O-])c(Cl)c1` [Compound 66], in experiment [1], the “Test A disease control rating (wheat leaf blotch)” value (from here on “Test A disease control rating”) stood at 100%. Also, the “Test B disease control rating (wheat leaf rust)” value (“Test B disease control rating” for short) in experiment [2] is recorded as 100%. For the same molecule, the “Test C disease control rating (wheat powdery mildew)” value (shortened to “Test C disease control rating”) in experiment [3] was 98%. The “Test D disease control rating (Asian soybean rust)” value (“Test D disease control rating” for short) in experiment [4] was 97%. In experiment [5], the “Test E disease control rating (tomato Botrytis)” value (from here on “Test E disease control rating”) was found to be 98%. The “Test F disease control rating (tomato early blight)” value (shortened to “Test F disease control rating”) in experiment [6] was 96%.
For `Cc1nn(C)c(Nc2c(F)cccc2[N+](=O)[O-])c1-c1c(Cl)cccc1Cl` [Compound 53], the “Test A disease control rating” value in experiment [1] is reported as 100%. Moreover, in experiment [2], the “Test B disease control rating” value amounted to 100%. In addition, the “Test C disease control rating” value in experiment [3] is reported as 98%. In addition, the “Test D disease control rating” value in experiment [4] is 0%. Besides, the “Test E disease control rating” value in experiment [5] came out at 98%. Besides, the “Test F disease control rating” value in experiment [6] was found to be 98%.
For `Cc1nn(C)c(Nc2cccc(Cl)c2[N+](=O)[O-])c1-c1ccc(F)cc1Cl` [Compound 34], in experiment [1], the “Test A disease control rating” value came to 100%. Also, the “Test B disease control rating” value in experiment [2] came to 54%. The “Test C disease control rating” value in experiment [3] came to 13%. For the same molecule, in experiment [4], the “Test D disease control rating” value was 0%. Also, the “Test E disease control rating” value in experiment [5] is 71%. Also, the “Test F disease control rating” value in experiment [6] stood at 0%.
As to `COc1cc(Cl)c(Nc2c(-c3ccc(F)cc3Cl)c(C)nn2C)c([N+](=O)[O-])c1` [Compound 80], the “Test A disease control rating” value in experiment [1] stood at 100%. Moreover, in experiment [2], the “Test B disease control rating” value is 100%. For the same molecule, the “Test C disease control rating” value in experiment [3] stood at 97%. For the same molecule, in experiment [4], the “Test D disease control rating” value was determined as 50%. For the same molecule, in experiment [5], the “Test E disease control rating” value stood at 95%. Further, the “Test F disease control rating” value in experiment [6] came out at 98%.
Take `COc1cc(F)c(-c2c(C)nn(C)c2Nc2c(Cl)cc(F)cc2[N+](=O)[O-])c(F)c1` [Compound 2]: the “Test A disease control rating” value in experiment [1] was 100%. Further, the “Test B disease control rating” value in experiment [2] stood at 100%. In addition, in experiment [3], the “Test C disease control rating” value is 99%. Moreover, the “Test D disease control rating” value in experiment [4] is on record as 94%. Besides, the “Test E disease control rating” value in experiment [5] was found to be 99%. Besides, in experiment [6], the “Test F disease control rating” value is 61%.
Regarding `COc1cc(Cl)c(Nc2c(-c3ccc(F)cc3F)c(C)nn2C)c([N+](=O)[O-])c1` [Compound 141], the “Test A disease control rating” value in experiment [1] stood at 99%. For the same molecule, in experiment [2], the “Test B disease control rating” value was determined as 100%. Also, the “Test C disease control rating” value in experiment [3] amounted to 99%. In addition, the “Test D disease control rating” value in experiment [4] was 0%. Besides, the “Test E disease control rating” value in experiment [5] amounted to 99%. Also, in experiment [6], the “Test F disease control rating” value is reported as 83%.
For the molecule `Cc1cc(Cl)c(Nc2c(-c3c(F)cccc3F)c(C)nn2C)c([N+](=O)[O-])c1` [Compound 100], the “Test A disease control rating” value in experiment [1] amounted to 100%. Besides, the “Test B disease control rating” value in experiment [2] is given as 89%. Moreover, the “Test C disease control rating” value in experiment [3] worked out at 21%. In experiment [4], the “Test D disease control rating” value is 0%. Moreover, in experiment [5], the “Test E disease control rating” value is recorded as 26%. The “Test F disease control rating” value in experiment [6] was found to be 0%.
Consider `Cc1cc(Cl)c(Nc2c(-c3ccc(F)cc3Cl)c(C)nn2C)c([N+](=O)[O-])c1` [Compound 31], for which the “Test A disease control rating” value in experiment [1] worked out at 100%. Moreover, in experiment [2], the “Test B disease control rating” value is on record as 100%. Also, the “Test C disease control rating” value in experiment [3] amounted to 100%. Besides, the “Test D disease control rating” value in experiment [4] is recorded as 98%. The “Test E disease control rating” value in experiment [5] came out at 99%. Further, the “Test F disease control rating” value in experiment [6] came to 76%.
`Cc1nn(C)c(Nc2c(F)cc(Cl)cc2[N+](=O)[O-])c1-c1ccc(Cl)cc1Cl` [Compound 11]: in experiment [1], the “Test A disease control rating” value was 100%. Further, the “Test B disease control rating” value in experiment [2] came to 98%. Also, the “Test C disease control rating” value in experiment [3] turned out to be 97%. For the same molecule, the “Test D disease control rating” value in experiment [4] was 0%. Besides, in experiment [5], the “Test E disease control rating” value is listed as 98%. Also, in experiment [6], the “Test F disease control rating” value is given as 99%.
With `Cc1nn(C)c(Nc2c(Cl)cccc2[N+](=O)[O-])c1-c1ccc(F)cc1F` [Compound 79], the “Test A disease control rating” value in experiment [1] worked out at 100%. Further, the “Test B disease control rating” value in experiment [2] is 100%. Moreover, in experiment [3], the “Test C disease control rating” value is reported as 91%. Moreover, in experiment [4], the “Test D disease control rating” value is recorded as 44%. The “Test E disease control rating” value in experiment [5] was found to be 98%. Also, in experiment [6], the “Test F disease control rating” value is recorded as 0%.
Consider `Cc1nn(C)c(Nc2ccccc2[N+](=O)[O-])c1-c1c(F)cccc1F` [Compound 135], for which the “Test A disease control rating” value in experiment [1] is reported as 100%. For the same molecule, in experiment [2], the “Test B disease control rating” value was found to be 68%. Further, in experiment [3], the “Test C disease control rating” value was determined as 93%. Also, in experiment [4], the “Test D disease control rating” value turned out to be 0%. Besides, the “Test E disease control rating” value in experiment [5] is recorded as 99%. Besides, the “Test F disease control rating” value in experiment [6] worked out at 0%.
Turning to `Cc1nn(C)c(Nc2ccc(OCC(F)F)cc2[N+](=O)[O-])c1-c1ccc(F)cc1Cl` [Compound 36], the “Test A disease control rating” value in experiment [1] worked out at 100%. Also, the “Test B disease control rating” value in experiment [2] worked out at 89%. Further, the “Test C disease control rating” value in experiment [3] was found to be 56%. Moreover, the “Test D disease control rating” value in experiment [4] is recorded as 25%. The “Test E disease control rating” value in experiment [5] was determined as 100%. In experiment [6], the “Test F disease control rating” value turned out to be 0%.
Turning to `Cc1nn(C)c(Nc2ccc(F)cc2[N+](=O)[O-])c1-c1ccc(F)cc1Cl` [Compound 111, 4-(2-chloro-4-fluorophenyl)-N-(4-fluoro-2-nitrophenyl)-1,3-dimethyl-1H-pyrazol-5-amine], the pest or weed control at 50 ppm in experiment [1] (Zymoseptoria tritici, read-out: Test A disease control rating (wheat leaf blotch)) turned out to be 100%; in experiment [2] (read-out: Test B disease control rating (wheat leaf rust)), 99%; in experiment [3] (Blumeria graminis, 192 h, read-out: Test C disease control rating (wheat powdery mildew)), 99%; in experiment [4] (Phakopsora pachyrhizi, read-out: Test D disease control rating (Asian soybean rust)), 0%; in experiment [5] (Botrytis cinerea, read-out: Test E disease control rating (tomato Botrytis)), 100%; in experiment [6] (Alternaria solani, read-out: Test F disease control rating (tomato early blight)) it was 93%.
Consider `COc1ccc(-c2c(C)nn(C)c2Nc2c(F)cc(Cl)cc2[N+](=O)[O-])c(Cl)c1` [Compound 81], for which the “Test A disease control rating” value in experiment [1] is recorded as 100%. The “Test B disease control rating” value in experiment [2] was 99%. Moreover, the “Test C disease control rating” value in experiment [3] came to 89%. Besides, in experiment [4], the “Test D disease control rating” value amounted to 0%. For the same molecule, the “Test E disease control rating” value in experiment [5] came out at 95%. Further, the “Test F disease control rating” value in experiment [6] amounted to 99%.
As to `COc1cc(F)c(-c2c(C)nn(C)c2Nc2ccccc2[N+](=O)[O-])c(F)c1` [Compound 147], the “Test A disease control rating” value in experiment [1] worked out at 96%. For the same molecule, in experiment [2], the “Test B disease control rating” value is 86%. The “Test C disease control rating” value in experiment [3] amounted to 97%. Besides, in experiment [4], the “Test D disease control rating” value is 0%. Besides, the “Test E disease control rating” value in experiment [5] is recorded as 100%. Further, in experiment [6], the “Test F disease control rating” value is on record as 99%.
Regarding `Cc1nn(C)c(Nc2c(F)cc(Cl)cc2[N+](=O)[O-])c1-c1ccc(C#N)cc1Cl` [Compound 115], the “Test A disease control rating” value in experiment [1] came to 100%. Moreover, the “Test B disease control rating” value in experiment [2] is 100%. Also, the “Test C disease control rating” value in experiment [3] is listed as 94%. Besides, the “Test D disease control rating” value in experiment [4] worked out at 77%. Further, the “Test E disease control rating” value in experiment [5] is listed as 99%. In addition, in experiment [6], the “Test F disease control rating” value was 99%.
As to `Cc1nn(C)c(Nc2c(F)cccc2[N+](=O)[O-])c1-c1c(F)cc(F)cc1F` [Compound 62], the “Test A disease control rating” value in experiment [1] amounted to 100%. The “Test B disease control rating” value in experiment [2] is 100%. In addition, the “Test C disease control rating” value in experiment [3] stood at 100%. For the same molecule, the “Test D disease control rating” value in experiment [4] turned out to be 100%. In experiment [5], the “Test E disease control rating” value came to 99%. In addition, the “Test F disease control rating” value in experiment [6] turned out to be 99%.
